Source: patent US20100035756A1, “TRIAZOLOPHYRIDINE DERIVATIVES AS HERBICIDES” (SYNGENTA LIMITED, priority 2006, published 2010)
“And” between values parts separate entries of the source, which are not always exact repeats. Identical values can stand only once.

Assays:
[1] = tested on: Monocotyledonous and dicotyledonous test plants; assay: Herbicidal action prior to emergence of the plants (pre-emergence action), Example B1; assay type: in vivo; conditions: preemergence application, 250 g/ha, evaluated after 4 weeks, 100%=total damage, 0%=no damage
Experimental: (§1) Monocotyledonous and dicotyledonous test plants are sown in seed trays in standard soil. Immediately after sowing, the test compounds are applied by spraying in the form of an aqueous suspension (prepared from a wettable powder (Example F3, b) according to WO 97/34485) or in the form of an emulsion (prepared from an emulsifiable concentrate (Example F1, c) according to WO 97/34485) in a concentration of 250 g/ha. The test plants are then grown in a greenhouse under optimum conditions. After a 4-week test period, the test is evaluated (100%=total damage to plant; 0%=no damage to plant; NC not evaluated).

[2] = tested on: Monocotyledonous and dicotyledonous test plants; assay: Herbicidal action after emergence of the plants (post-emergence herbicidal action), Example B2; assay type: in vivo; conditions: postemergent application, 125 g/ha, 2- to 3-leaf stage, evaluated after 2-3 weeks, 100%=total damage
Experimental: as §1, with “When the test plants are at the 2- to 3-leaf stage,” for “Immediately after sowing,”, “125” for “250”, “grown on” for “grown”, “2- to 3-week” for “4-week”, “plant).” for “plant; NC not evaluated).”

Compound: CC(C)c1nnc2c(C(=O)C3=C(O)C(C)(C)C(=O)C(C)(C)C3=O)ccc(C(F)(F)F)n12 [Compound 5.4]
- herbicidal damage, ABUTH [1]: 100%
- herbicidal damage, AMARE [1]: 100%
- herbicidal damage, BRAPL [1]: 100%
- herbicidal damage, DIGSA [1]: 60%
- herbicidal damage, ECHCG [1]: 40%
- herbicidal damage, SETFA [1]: 30%
- herbicidal damage, STEME [1]: 100%
- herbicidal damage, VERPE [1]: 100%
- herbicidal damage, ABUTH [2]: 80%
- herbicidal damage, AMARE [2]: 90% and 70%
- herbicidal damage, CHEAL [2]: 80%
- herbicidal damage, SETFA [2]: 50%
- herbicidal damage, SINAR [2]: 70% and 80%
- herbicidal damage, VERPE [2]: 80% and 90%
- herbicidal damage, XANST [2]: 70% and 90%

Compound: O=C(C1=C(O)C2CCC(C2)C1=O)c1ccc(C(F)(F)F)n2nc(Cl)nc12 (stereo not drawn) [2.2]
- herbicidal damage, ABUTH [1]: 50%
- herbicidal damage, AMARE [1]: 70%
- herbicidal damage, BRAPL [1]: 50%
- herbicidal damage, DIGSA [1]: 50%
- herbicidal damage, ECHCG [1]: 70%
- herbicidal damage, SETFA [1]: 10%
- herbicidal damage, STEME [1]: 0%
- herbicidal damage, VERPE [1]: 60%
- herbicidal damage, ABUTH [2]: 40%
- herbicidal damage, AMARE [2]: 80%
- herbicidal damage, CHEAL [2]: 80%
- herbicidal damage, DIGSA [2]: 90%
- herbicidal damage, SETFA [2]: 80%
- herbicidal damage, SINAR [2]: 70%
- herbicidal damage, VERPE [2]: 70%
- herbicidal damage, XANST [2]: 60%

Compound: CCOc1nnc2c(C(=O)C3=C(O)C4CCC(C4)C3=O)ccc(C(F)(F)F)n12 (stereo not drawn) [Compound 1.211]
- herbicidal damage, ABUTH [1]: 30%
- herbicidal damage, AMARE [1]: 100%
- herbicidal damage, BRAPL [1]: 100%
- herbicidal damage, DIGSA [1]: 70%
- herbicidal damage, ECHCG [1]: 70%
- herbicidal damage, SETFA [1]: 30%
- herbicidal damage, STEME [1]: 80%
- herbicidal damage, VERPE [1]: 90%
- herbicidal damage, ABUTH [2]: 70%
- herbicidal damage, AMARE [2]: 100%
- herbicidal damage, CHEAL [2]: 80%
- herbicidal damage, DIGSA [2]: 70%
- herbicidal damage, SETFA [2]: 80%
- herbicidal damage, SINAR [2]: 80%
- herbicidal damage, VERPE [2]: 80%
- herbicidal damage, XANST [2]: 80%

Compound: CCSc1nnc2c(C(=O)C3=C(O)C4CCC(C4)C3=O)ccc(C(F)(F)F)n12 (stereo not drawn) [Compound 1.212]
- herbicidal damage, ABUTH [1]: 70%
- herbicidal damage, AMARE [1]: 100%
- herbicidal damage, BRAPL [1]: 60%
- herbicidal damage, DIGSA [1]: 70%
- herbicidal damage, ECHCG [1]: 50%
- herbicidal damage, SETFA [1]: 80%
- herbicidal damage, STEME [1]: 70%
- herbicidal damage, VERPE [1]: 0%
- herbicidal damage, ABUTH [2]: 80%
- herbicidal damage, AMARE [2]: 80%
- herbicidal damage, CHEAL [2]: 80%
- herbicidal damage, DIGSA [2]: 80%
- herbicidal damage, SETFA [2]: 80%
- herbicidal damage, SINAR [2]: 80%
- herbicidal damage, VERPE [2]: 80%
- herbicidal damage, XANST [2]: 80%

Compound: Cc1nnc2c(C(=O)c3cnn(C)c3O)ccc(C(F)(F)F)n12 [Compound 6.3]
- herbicidal damage, ABUTH [1]: 10%
- herbicidal damage, AMARE [1]: 70%
- herbicidal damage, DIGSA [1]: 30%
- herbicidal damage, ECHCG [1]: 30%
- herbicidal damage, SETFA [1]: 0%
- herbicidal damage, STEME [1]: 40%
- herbicidal damage, VERPE [1]: 80%
- herbicidal damage, ABUTH [2]: 60%
- herbicidal damage, AMARE [2]: 90%
- herbicidal damage, CHEAL [2]: 70%
- herbicidal damage, DIGSA [2]: 80%
- herbicidal damage, SETFA [2]: 60%
- herbicidal damage, SINAR [2]: 80%
- herbicidal damage, VERPE [2]: 80%
- herbicidal damage, XANST [2]: 80%

Compound: O=C(C1=C(O)C2CCC(C2)C1=O)c1ccc(C(F)(F)F)n2c(Cl)nnc12 (stereo not drawn) [Compound 1.2]
- herbicidal damage, ABUTH [1]: 100%
- herbicidal damage, AMARE [1]: 100%
- herbicidal damage, BRAPL [1]: 100%
- herbicidal damage, DIGSA [1]: 100%
- herbicidal damage, ECHCG [1]: 100%
- herbicidal damage, SETFA [1]: 90%
- herbicidal damage, VERPE [1]: 70%
- herbicidal damage, ABUTH [2]: 90%
- herbicidal damage, AMARE [2]: 80%
- herbicidal damage, CHEAL [2]: 80%
- herbicidal damage, DIGSA [2]: 90%
- herbicidal damage, SETFA [2]: 90%
- herbicidal damage, SINAR [2]: 70%
- herbicidal damage, VERPE [2]: 70%
- herbicidal damage, XANST [2]: 80%

Compound: Cc1nc2c(C(=O)C3=C(O)C(C)(C)C(=O)C(C)(C)C3=O)ccc(C(F)(F)F)n2n1 [13.3]
- herbicidal damage, ABUTH [1]: 100%
- herbicidal damage, AMARE [1]: 90%
- herbicidal damage, BRAPL [1]: 80%
- herbicidal damage, DIGSA [1]: 80%
- herbicidal damage, ECHCG [1]: 30%
- herbicidal damage, SETFA [1]: 70%
- herbicidal damage, STEME [1]: 100%
- herbicidal damage, VERPE [1]: 100%
- herbicidal damage, ABUTH [2]: 80%
- herbicidal damage, AMARE [2]: 70%
- herbicidal damage, CHEAL [2]: 50%
- herbicidal damage, DIGSA [2]: 60%
- herbicidal damage, SETFA [2]: 70%
- herbicidal damage, SINAR [2]: 80%
- herbicidal damage, VERPE [2]: 70%
- herbicidal damage, XANST [2]: 80%

Compound: CC(C)c1nc2c(C(=O)C3=C(O)C4CCC(C4)C3=O)ccc(C(F)(F)F)n2n1 (stereo not drawn) [2.7]
- herbicidal damage, ABUTH [1]: 30%
- herbicidal damage, AMARE [1]: 20%
- herbicidal damage, BRAPL [1]: 0%
- herbicidal damage, DIGSA [1]: 0%
- herbicidal damage, ECHCG [1]: 10%
- herbicidal damage, SETFA [1]: 0%
- herbicidal damage, STEME [1]: 20%
- herbicidal damage, VERPE [1]: 50%
- herbicidal damage, ABUTH [2]: 70%
- herbicidal damage, CHEAL [2]: 70%
- herbicidal damage, DIGSA [2]: 20%
- herbicidal damage, SETFA [2]: 20%
- herbicidal damage, SINAR [2]: 60%
- herbicidal damage, VERPE [2]: 10%
- herbicidal damage, XANST [2]: 70%

Compound: CCc1nnc2c(C(=O)C3=C(O)CCCC3=O)ccc(C(F)(F)F)n12 [Compound 3.5]
- herbicidal damage, ABUTH [1]: 100%
- herbicidal damage, AMARE [1]: 70%
- herbicidal damage, BRAPL [1]: 80%
- herbicidal damage, DIGSA [1]: 90%
- herbicidal damage, ECHCG [1]: 70%
- herbicidal damage, SETFA [1]: 90%
- herbicidal damage, STEME [1]: 60%
- herbicidal damage, VERPE [1]: 30%
- herbicidal damage, ABUTH [2]: 90%
- herbicidal damage, AMARE [2]: 100%
- herbicidal damage, CHEAL [2]: 90%
- herbicidal damage, DIGSA [2]: 80%
- herbicidal damage, SETFA [2]: 70%
- herbicidal damage, SINAR [2]: 80%
- herbicidal damage, VERPE [2]: 90%
- herbicidal damage, XANST [2]: 80%

Compound: CC1(C)C(=O)C(C(=O)c2ccc(C(F)(F)F)n3c(-c4ccc(Cl)cc4)nnc23)=C(O)C(C)(C)C1=O [Compound 5.10]
- herbicidal damage, ABUTH [1]: 100%
- herbicidal damage, AMARE [1]: 100%
- herbicidal damage, BRAPL [1]: 20%
- herbicidal damage, DIGSA [1]: 40%
- herbicidal damage, ECHCG [1]: 20%
- herbicidal damage, SETFA [1]: 0%
- herbicidal damage, STEME [1]: 30%
- herbicidal damage, ABUTH [2]: 80%
- herbicidal damage, AMARE [2]: 80%
- herbicidal damage, CHEAL [2]: 70%
- herbicidal damage, DIGSA [2]: 20%
- herbicidal damage, SETFA [2]: 30%
- herbicidal damage, SINAR [2]: 80%
- herbicidal damage, VERPE [2]: 100%
- herbicidal damage, XANST [2]: 80%

Compound: O=C(C1=C(O)C2CCC(C2)C1=O)c1ccc(C(F)(F)F)n2cnnc12 (stereo not drawn) [Compound 1.1]
- herbicidal damage, ABUTH [1]: 100%
- herbicidal damage, BRAPL [1]: 30%
- herbicidal damage, DIGSA [1]: 70%
- herbicidal damage, ECHCG [1]: 0%
- herbicidal damage, SETFA [1]: 30%
- herbicidal damage, STEME [1]: 100%
- herbicidal damage, VERPE [1]: 60%
- herbicidal damage, ABUTH [2]: 80%
- herbicidal damage, AMARE [2]: 80%
- herbicidal damage, CHEAL [2]: 80%
- herbicidal damage, DIGSA [2]: 60%
- herbicidal damage, SETFA [2]: 80%
- herbicidal damage, SINAR [2]: 90%
- herbicidal damage, VERPE [2]: 50%
- herbicidal damage, XANST [2]: 80%

Compound: CC(C)c1nnc2c(C(=O)C3=C(O)CCCC3=O)ccc(C(F)(F)F)n12 [Compound 3.6]
- herbicidal damage, ABUTH [1]: 90%
- herbicidal damage, AMARE [1]: 70%
- herbicidal damage, BRAPL [1]: 60%
- herbicidal damage, DIGSA [1]: 90%
- herbicidal damage, ECHCG [1]: 90%
- herbicidal damage, SETFA [1]: 50%
- herbicidal damage, STEME [1]: 20%
- herbicidal damage, VERPE [1]: 20%
- herbicidal damage, ABUTH [2]: 80%
- herbicidal damage, AMARE [2]: 70%
- herbicidal damage, CHEAL [2]: 90%
- herbicidal damage, DIGSA [2]: 70%
- herbicidal damage, SETFA [2]: 70%
- herbicidal damage, SINAR [2]: 90%
- herbicidal damage, VERPE [2]: 100%
- herbicidal damage, XANST [2]: 90%
